Source: patent US9776992B2, “1-oxo-1,2-dihydroisoquinolin-7-yl-(5-substituted-thiophen-2-yl)-sulfonamide compounds, formulations containing those compounds, and their use as AICARFT inhibitors in the treatment of cancers” (Eli Lilly and Company, priority 2014, dated 2017)

Target: AICARFT (Homo sapiens, UniProt P31939)
Assay: AICARFT enzyme assay (LC-MS of IMP and ZMP)
Assay type: biochemical
Design: made in house; host or cells: E. coli BL21(DE3)
Conditions: for IC50: Mean ± SEM, 25 μM ZMP, 100 μM 10-F-THFA, 3 nM ATIC enzyme, 1 hour at room temperature; for AICARFT inhibition in enzyme assay (in words): summary of Table 15
Experimental: Human AICARFT (NCBI accession number: NM_004044.6) cDNA is purchased from Openbiosystem Co. (Cat# MHS1011-62310, Clone ID: 4300570, accession: BC008879). The nucleotide sequence encoding full-length human AICARFT is inserted into pET21d (Novagen) vector with an N-terminal HIS tag. Bacterial BL21(DE3) (Novagen) is used as an expression host, and the induction of protein expression is carried out in 2×TY media with 1 mM IPTG at 18° C. overnight. Cell pellets are stored at −80° C. for subsequent protein purification. Protein purification is conducted at 4° C. Frozen cell pellets are lysed by incubation with stirring in 50 mL cold lysis buffer (50 mM Tris-HCl, pH 7.5, 300 mM NaCl, 10% glycerol, 0.1% Triton X-100, 0.5 mg/mL lysozyme, 5 U/mL benzonase, 1 mM DTT, 10 mM imidazole, and Roche complete EDTA-free protease inhibitor) per liter cell pellet and sonication. Cell lysates are clarified by centrifugation in a Bechman JA-18 rotor for 45 min at 16,500 rpm. The supernatant is incubated with Ni-NTA agarose resin (Qiagen) for 3 hours, followed by an initial batch wash with 10 resin volume of buffer A (50 mM Tris-HCl, pH 7.5, 300 mM NaCl, 10% glycerol, 1 mM DTT, 10 mM imidazole) containing 0.1% Triton X-100. The resin is then packed onto a column and washed with buffer A. The HIS-tagged AICARFT protein is eluted with 10-500 mM imidazole gradient in buffer A. Pooled HIS-AICARFT containing fractions are concentrated, loaded onto a HiLoad 26/600 Superdex 200 column (GE Healthcare Biosciences), and eluted with storage buffer (50 mM Tris-HCl, pH7.5, 150 mM NaCl, 1 mM DTT, 10% Glycerol). Fractions containing HIS-AICARFT are pooled and protein concentration determined by the Bradford assay using BSA as standard. The protein is aliquoted and stored at −80° C.
One of the substrates of the enzyme reaction, 10-formyltetrahydrofolate (10-F-THFA), has limited chemical stability and is therefore synthesized on the same day that the ATIC enzyme assay is performed. The general synthetic route is described in P. Rowe, Methods Enzymol., 18, 733-735, (1971) and J. Rabinowitz, Methods Enzymol., 6, 814-815, (1963). The first step in this synthesis is the conversion of folinic acid (Sigma CAS 1492-18-8) to 5,10-methenyltetrahydrofolic acid (5,10-M-THFA). This conversion typically takes place the day before the enzyme assay is performed, but can be performed up to 1 week earlier and stored at room temperature. To folinic acid (81.6 mg) is added β-mercaptoethanol (2 mL), and 37% concentrated HCl (80 μL), is added. This reaction incubates a minimum of 3 hours at room temperature, with occasional mixing. The color changes from clear to yellow visually, and the complete conversion of folinic acid to 5,10-M-THFA is monitored by spectral analysis using a quartz cuvette. The UV absorption will change from 266 nm to 356 nm during this step. […] On the morning of the assay, the 80 mM 5,10-M-THFA is diluted to 1.6 mM in 40 μM ammonium bicarbonate (made fresh that day). This reaction incubates 3-5 hours at room temperature. The color changes from yellow to clear visually, and the conversion of 5,10-M-THFA to 10-F-THFA is monitored by spectral analysis using a quartz cuvette. The UV absorption will change from 356 nm to 258 nm during this step. […] Test compounds are prepared in DMSO to make a 10 mM stock solution. The stock solution is serially diluted 3-fold in DMSO to obtain a ten-point dilution curve with final compound concentrations ranging from 100 μM to 5 nM. The final DMSO concentration in the assay is 5%.
To each well of a 384-well polypropylene assay plate (NUNC 264573), […] of DMSO (control wells) or compound in DMSO and 9 μL of 55.56 μM ZMP (Sigma-Aldrich CAS 3031-94-5) in water are added. Then, 10 μL of 200 μM 10-F-THFA and 6 nM ATIC enzyme in 40 μM ammonium bicarbonate is added. […] The assay is incubated for 1 hour at room temperature, after which 40 μL of ACN is added to stop the reaction.

AICARFT, sequence (P31939 whole entry): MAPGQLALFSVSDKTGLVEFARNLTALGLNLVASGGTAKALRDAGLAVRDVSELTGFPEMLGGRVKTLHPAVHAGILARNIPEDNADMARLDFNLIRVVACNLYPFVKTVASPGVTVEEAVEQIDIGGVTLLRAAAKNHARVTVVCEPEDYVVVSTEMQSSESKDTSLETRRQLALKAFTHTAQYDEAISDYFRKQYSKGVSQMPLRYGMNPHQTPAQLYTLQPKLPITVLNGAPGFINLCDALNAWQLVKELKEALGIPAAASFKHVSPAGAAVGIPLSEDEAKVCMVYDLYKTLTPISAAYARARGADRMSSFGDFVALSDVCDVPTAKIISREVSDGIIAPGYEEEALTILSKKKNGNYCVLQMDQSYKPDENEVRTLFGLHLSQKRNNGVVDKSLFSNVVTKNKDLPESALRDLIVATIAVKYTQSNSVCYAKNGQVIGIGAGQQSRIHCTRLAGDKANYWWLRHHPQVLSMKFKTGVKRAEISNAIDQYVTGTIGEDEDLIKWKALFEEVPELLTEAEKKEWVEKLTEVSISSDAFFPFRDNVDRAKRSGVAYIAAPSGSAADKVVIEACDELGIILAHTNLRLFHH

SMILES	IC50	AICARFT inhibition in enzyme assay (in words)
O=c1[nH]ccc2cc(F)c(NS(=O)(=O)c3ccc(N4C[C@@H](O)[C@@H](F)C4)s3)cc12 (single isomer, unassigned) [Example 33]	7.75 nM	inhibit AICARFT
O=c1[nH]ccc2cc(F)c(NS(=O)(=O)c3ccc([C@@H]4CC[C@@H](O)C4)s3)cc12 (single isomer, unassigned) [Example 46]	29.1 nM	inhibit AICARFT
O=c1[nH]ccc2cc(F)c(NS(=O)(=O)c3ccc(N4C[C@@H](O)C(F)(F)C4)s3)cc12 [Example 41, 5-[(4R)-3,3-difluoro-4-hydroxypyrrolidin-1-yl]-N-(6-fluoro-1-oxo-1,2-dihydroisoquinolin-7-yl)thiophene-2-sulfonamide]	10.6 nM	inhibit AICARFT
CC1(C)CC(c2ccc(S(=O)(=O)Nc3cc4c(=O)[nH]ccc4cc3F)s2)=CNC1=O [Example 81, 5-(5,5-Dimethyl-6-oxo-1,4,5,6-tetrahydropyridin-3-yl)-N-(6-fluoro-1-oxo-1,2-dihydroisoquinolin-7-yl)thiophene-2-sulfonamide]	< 5.08 nM	inhibit AICARFT
CCC1(C)CC(c2ccc(S(=O)(=O)Nc3cc4c(=O)[nH]ccc4cc3F)s2)=CNC1=O (single isomer, unassigned; isomer 1) [Example 84, 5-(5-Ethyl-5-methyl-6-oxo-1,4,5,6-tetrahydropyridin-3-yl)-N-(6-fluoro-1-oxo-1,2-dihydroisoquinolin-7-yl)thiophe2ne-2-sulfonamide, Isomer 1]	< 5.08 nM	inhibit AICARFT
O=c1[nH]ccc2cc(F)c(NS(=O)(=O)c3ccc(N4CC[C@@H](O)C4)s3)cc12 [Example 1, N-(6-Fluoro-1-oxo-1,2-dihydroisoquinolin-7-yl)-5-[(3R)-3-hydroxypyrrolidin-1-yl]thiophene-2-sulfonamide]	–	inhibit AICARFT
